The values that follow come from paper PMC12336439 (Archiv Der Pharmazie, 2025).

This experiment addresses T1, USP7asoc (active site only cysteine) (Homo sapiens, UniProt Q93009, C300S/C315S/C334S/C478S/C488S/C510S).
T1 construct: (208‐560, C300/315/334/448/478/510S); made in house
Nature of the experiment: Differential scanning fluorimetry (DSF), melting temperature shift of USP7asoc mutant. The format is binding. Conditions: for ∆T m ± SD USP7asoc: 8 µM protein, 250 µM compound (1:31.25). On the technique in general: In DSF a fluorescence change marks the thermal transition of the protein.

Marks after values point to notes of the source that are not given here.

T1 sequence (Q93009 with tags, fused parts or gaps C300S/C315S/C334S/C478S/C488S/C510S): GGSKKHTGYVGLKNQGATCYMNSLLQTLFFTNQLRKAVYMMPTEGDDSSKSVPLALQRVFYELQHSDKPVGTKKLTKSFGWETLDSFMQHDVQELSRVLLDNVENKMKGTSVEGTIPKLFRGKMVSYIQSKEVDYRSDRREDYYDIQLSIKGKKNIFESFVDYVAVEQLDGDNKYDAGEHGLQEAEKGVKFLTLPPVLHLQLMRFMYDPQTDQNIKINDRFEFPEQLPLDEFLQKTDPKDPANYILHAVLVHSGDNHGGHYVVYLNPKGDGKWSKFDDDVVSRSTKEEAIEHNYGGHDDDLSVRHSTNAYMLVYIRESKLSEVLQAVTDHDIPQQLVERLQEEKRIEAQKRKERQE

As to `Cn1ccc(-c2cccc3cnc(Nc4nc(F)ccc4[N+](=O)[O-])cc23)c1` [7b, N‐(6‐Fluoro‐3‐nitropyridin‐2‐yl)‐5‐(1‐methyl‐1H‐pyrrol‐3‐yl)isoquinolin‐3‐amine], the “∆T m ± SD USP7asoc” value (30 min incubation at 20°C) stood at 0.05 ± 0.09 °C, the “∆T m ± SD USP7asoc” value (4 h incubation at 20°C) was 0.45 ± 0.12 °C and the “∆T m ± SD USP7asoc” value (24 h incubation at 20°C) was 0.38 ± 0.06 °C.
On the same counts, the results for `CCn1cc(-c2cccc3cnc(Nc4nc(F)ccc4[N+](=O)[O-])cc23)cn1` [7c, 5‐(1‐Ethyl‐1H‐pyrazol‐4‐yl)‐N‐(6‐fluoro‐3‐nitropyridin‐2‐yl)isoquinolin‐3‐amine] are “–0.25 ± 0.23 °C”, 0.20 ± 0.09 °C and 0.23 ± 0.08 ^b °C.
In the same order, the values of `CCCn1cc(-c2cccc3cnc(Nc4nc(F)ccc4[N+](=O)[O-])cc23)cn1` [7d, N‐(6‐Fluoro‐3‐nitropyridin‐2‐yl)‐5‐(1‐propyl‐1H‐pyrazol‐4‐yl)isoquinolin‐3‐amine] are 0.00 ± 0 °C, 0.03 ± 0.08 °C and 0.35 ± 0.06 °C.
Regarding `O=[N+]([O-])c1ccc(F)nc1Nc1cc2c(-c3cnn(C4CC4)c3)cccc2cn1` [7e, 5‐(1‐Cyclopropyl‐1H‐pyrazol‐4‐yl)‐N‐(6‐fluoro‐3‐nitropyridin‐2‐yl)isoquinolin‐3‐amine], the “∆T m ± SD USP7asoc” value is “–0.35 ± 0.09 °C” (30 min incubation at 20°C), “–0.13 ± 0.04 °C” (4 h incubation at 20°C) and 0.40 ± 0.09 ^b °C (24 h incubation at 20°C). Further, the “∆T m of small shoulder (second smaller peak) of the melting curve of USP7asoc” value (24 h incubation, 250 µM compound) is “about –5 °C”.
Turning to `O=[N+]([O-])c1ccc(F)nc1Nc1cc2c(-c3ccc(-c4ccncc4)cc3)cccc2cn1` [7i, N‐(6‐Fluoro‐3‐nitropyridin‐2‐yl)‐5‐[4‐(pyridin‐4‐yl)phenyl]isoquinolin‐3‐amine], the “∆T m ± SD USP7asoc” value by setting is: (30 min incubation at 20°C) “–0.30 ± 0.12 °C”; (4 h incubation at 20°C) “–0.15 ± 0 °C”; (24 h incubation at 20°C) 0.05 ± 0.17 °C.
